Reference: patent publication US7026314B2, “Therapeutic chromone compounds” (AstraZeneca AB, priority 2001, dated 2006)

Key:
[1] = tested on: guinea pigs; assay: learned helplessness test in guinea pigs; format: in vivo; conditions: guinea pig
Text: The utility of the compounds for example to treat depression may be shown via a learned helplessness test in guinea pigs, which is used extensively as correlative to antidepressant activity in humans. The learned helplessness test may be carried out as follows: Seventy male Hartley guinea pigs, each weighing about 350–425 gm are fed ad lib, and are housed under a 12-hour light/dark cycle. The procedure consists of two phases: The induction phase and the avoidance training phase. In the induction phase, subjects are placed into standard shuttle cages (20 L×16 W×21 centimeters H) which are fitted with a grid floor. Electrical stimulation (1.25 mA, 10 sec duration) is delivered to the floor of the cage every 90-sec during 1 hour daily sessions. Subjects have no opportunity to escape or to avoid shocks. Induction is conducted for 2 consecutive days.
In avoidance training, testing is also conducted in the shuttle cages, except that the subjects are not returned to the same chamber in which induction had occurred. Additionally, all cages are fitted with a partition with an arch in the center of the cage, through which animals can pass between the left and right halves of the cage. The procedure employed is a standard shuttle avoidance procedure in which a compound, conditioned stimulus (a 10-sec presentation of a tone and turning on of a lamp on the side of the cage that the guinea pig was occupying) serves to indicate presentation of electrical current to the floor of the cage. Shock is presented for a 5 sec period, 5 sec after initiation of the conditioned stimulus. Entry into the opposite side of the shuttle cage via the arched partition prior to shock onset results in the end of the trial (avoidance response). If shock is delivered, entry into the opposite side of the cage results in termination of the shock and CS (escape). Reversal of learned helplessness in the induction subjects correlates to antidepressant activity of the test compound.
Avoidance training, 45-min in duration, is conducted on 2 consecutive days, beginning 48 hr after the final induction session. Seventy subjects are assigned to 1 of 6 groups of 11–12 animals. The groups are as follows:
Groups 2–6 are given induction and avoidance training sessions. Injections are administered immediately following induction sessions and 1 hour prior to avoidance training sessions. A second injection is administered 7–8 hours following the first injection, for a total of 9 injections administered over 5 days. No injections are administered following the final avoidance training session.
Compounds of the present invention may be administered in a volume of 1 mL/kg bwt. Imipramine is dissolved in DI water. The compounds are dissolved in DI water, to which was added a few drops of lactic acid (pH 5.5). […]

[2] = target: 5-HT1B and 5HT1D receptors; conditions: saturation studies, guinea pig cortex membranes; read-out: Kd value of [3H]GR125743; cited from earlier work
[3] = target: T1, 5-HT1B receptors (Homo sapiens, UniProt P28222); assay: 5-HT1b binding assay, competition with [3H]-GR125743 on CHO cell membranes; conditions: CHO membranes expressing 5-HT1B and 5-HT1D receptors
T1 construct: expressed in transfected cells; host or cells: CHO (stably transfected), frozen membrane preparations
T1 sequence (P28222 whole entry): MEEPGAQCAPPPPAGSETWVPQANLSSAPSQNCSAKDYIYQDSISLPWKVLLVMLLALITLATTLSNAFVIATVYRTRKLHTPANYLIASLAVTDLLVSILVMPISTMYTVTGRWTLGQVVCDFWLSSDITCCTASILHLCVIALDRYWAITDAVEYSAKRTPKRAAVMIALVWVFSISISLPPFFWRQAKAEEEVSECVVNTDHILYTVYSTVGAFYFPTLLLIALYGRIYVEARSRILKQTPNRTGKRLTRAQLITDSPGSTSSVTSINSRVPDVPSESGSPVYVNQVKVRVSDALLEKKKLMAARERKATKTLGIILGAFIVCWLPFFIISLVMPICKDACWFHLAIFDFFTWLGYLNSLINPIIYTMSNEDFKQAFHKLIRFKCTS
Text: Other assays that may be used to measure for example affinity of compounds of the present invention for 5HT1B and 5HT1D receptors are described in J. Med. Chem 41:1218–1235, 1228 (1998) and J. Med. Chem 42:4981–5001, (1999) and incorporated by reference herein. These assays may be used with some modifications: Frozen membrane preparations of a stably transfected chinese hamster ovary (CHO) cell line expressing 5-HT1B receptors and 5-HT1D receptors are thawed rapidly, briefly vortexed, and diluted in assay buffer (AB) containing 50 mM Tris-HCl, 4 mM MgCl2, 4mM CaCl2, 1 mM EDTA, and adjusted to pH 7.4 with NaOH. Final protein concentrations are −0.185 mg/ml for 5-HT1B, and 0.4 mg/ml for 5-HT1D membranes. Test compounds are evaluated in competition assays using [^3H]-GR125743 (Amersham). The ligand concentration in both assays was 0.27 nM. […] The 5-HT1B and 5-HT1D assays are performed simultaneously on one 96-well assay plate, one drug/compound per plate. Ten serial dilutions (1 uM to 4 pM, final concentration) of compound are prepared in DMSO from 10 mM stock solutions. Incubation mixtures are prepared in quadruplicate in 96-deep well assay plates (Matrix 1 ml). […] The plates are then counted on a Packard TopCount to determine CPM's per well. Ki values are determined for each test compound utilizing the graphic and analytical software package, GraphPad Prism. […]

| Compound | melting point | other results |
| --- | --- | --- |
| CN1CCN(c2cccc3c2OC(C(=O)Nc2ccc(N4CCOCC4)cc2)CC3)CC1 (single isomer, unassigned; (-)) [Example 77, (−)-8-(4-Methyl-piperazin-1-yl)-chroman-2-carboxylic acid (4-morpholin-4-yl-phenyl)-amide] | 205.5 to 207 °C | – |
| CN1CCN(c2cccc3c2OC(C(=O)Nc2ccc(N4CCOCC4)cc2)CC3=O)CC1 (single isomer, unassigned) [Example 79, 8-(4-Methyl-piperazin-1-yl)-4-oxo-chroman-2-carboxylic acid (4-morpholin-4-yl-phenyl)-amide(fasterrunning isomer)] | 216 °C (dec.) | – |
| CCC(=O)N1CCN(c2ccc(NC(=O)c3cc(=O)c4cc(F)cc(N5CCN(C)CC5)c4o3)cc2)CC1 [Example 72, 6-Fluoro-8-(4-methyl-piperazin-1-yl)-4-oxo-4H-chromene-2-carboxylic acid [4-(4-propionyl-piperazin-1-yl)-phenyl]-amide] | – | activity in the learned helplessness assay for antidepressant/antianxiety activity [1]: demonstrate activity |
| COc1ccc(NC(=O)c2ccc(-c3ccncc3)c(C)c2)cc1N1CCN(C)CC1 [[^3H]-GR125743] | – | Kd [2]: 0.046 ± 0.004 nM; Kd [3]: 0.15 to 0.25 nM |
| CCC(=O)N1CCN(c2ccc(NC(=O)c3cc(=O)c4cc(OC)cc(N5CCN(C)CC5)c4o3)cc2)CC1 [Example 44, 6-Methoxy-8-(4-methyl-piperazin-1-yl)-4-oxo-4H-chromene-2-carboxylic acid [4-(4-propionyl-piperazin-1-yl)-phenyl]-amide] | – | activity in the learned helplessness assay for antidepressant/antianxiety activity [1]: demonstrate activity |
| CCS(=O)(=O)N1CCN(c2ccc(NC(=O)c3cc(=O)c4cc(F)cc(N5CCN(C)CC5)c4o3)cc2)CC1 [Example 71, 6-Fluoro-8-(4-methyl-piperazin-1-yl)-4-oxo-4H-chromene-2-carboxylic acid [4-(4-ethanesulfonyl-piperazin-1-yl)-phenyl]-amide] | 233 to 234 °C | activity in the learned helplessness assay for antidepressant/antianxiety activity [1]: demonstrate activity |
| CN1CCN(c2cccc3c(=O)cc(-c4nc5ccc(N6CCOCC6)cc5o4)oc23)CC1 [Example 21, 8-(4-Methyl-piperazin-1-yl)-2-(6-morpholin-4-yl-benzooxazol-2-yl)-chromen-4-one] | 158.1 to 158.8 °C | – |
| COc1cc(N2CCN(C)CC2)c2oc(C(=O)Nc3ccc(N4CCN(C(=O)CCO)CC4)cc3)cc(=O)c2c1 [Example 68, 6-Methoxy-8-(4-methyl-piperazin-1-yl)-4-oxo-4H-chromene-2-carboxylic acid {4-[4-(3-hydroxy-propanoyl)-piperazin-1-yl]-phenyl}-amide] | 195 to 197 °C | – |
| CN1CCN(c2cccc3c2OC(C(=O)Nc2ccc(N4CCOCC4)cc2)CC3=O)CC1 (single isomer, unassigned) [Example 80, 8-(4-Methyl-piperazin-1-yl)-4-oxo-chroman-2-carboxylic acid (4-morpholin-4-yl-phenyl)-amide(slowerrunning isomer).] | 215 °C (dec.) | – |
| CN1CCN(c2cccc3c(=O)cc(C(=O)Nc4ccc(N5CCOCC5)cc4O)oc23)CC1 [Example 22, 8-(4-Methyl-piperazin-1-yl)-4-oxo-4H-chromene-2-carboxylic acid (2-hydroxy-4-morpholin-4-yl-phenyl)-amide] | 248.4 to 249.6 °C | – |
| CN1CCN(c2cccc3c2OC(C(=O)Nc2ccc(N4CCOCC4)cc2)CC3)CC1 (single isomer, unassigned; (+)) [Example 76, (+)-8-(4-Methyl-piperazin-1-yl)-chroman-2-carboxylic acid (4-morpholin-4-yl-phenyl)-amide] | 206 to 207 °C | – |
| CN1CCN(c2cccc3c(=O)cc(C(=O)Nc4ccc(N5CCOCC5)cc4)oc23)CC1 [Example 1, 8-(4-methyl-1-piperazinyl)-N-[4-(4-morpholinyl)phenyl]-4-oxo-4H-chromene-2-carboxamide] | 217 to 218 °C (dec.) | – |
| CN1CCN(c2cccc3c2OC(C(=O)Nc2ccc(N4CCOCC4)cc2)CC3)CC1 (racemic) [Example 75, 8-(4-Methyl-piperazin-1-yl)-chroman-2-carboxylic acid(4-morpholin-4-yl-phenyl)-amide] | 215 to 216 °C | – |
| CN1CCN(c2cccc3c2OC(C(=O)Nc2ccc(N4CCOCC4)cc2)CC3=O)CC1 (racemic) [Example 78, racemic-8-(4-methyl-piperazin-1-yl)-4-oxo-chroman-2-carboxylicacid (4-morpholin-4-yl-phenyl)-amide] | 215 to 216 °C | – |
| CN1CCN(c2cc(F)cc3c(=O)cc(C(=O)Nc4ccc(N5CCN(C(=O)CCO)CC5)cc4)oc23)CC1 [Example 73, 6-Fluoro-8-(4-methyl-piperazin-1-yl)-4-oxo-4H-chromene-2-carboxylic acid {4-[4-(3-hydroxy-propanoyl)-piperazin-1-yl]-phenyl}-amide] | 195 to 199 °C | – |
| COc1cc(N2CCN(C)CC2)c2oc(C(=O)Nc3ccc(N4CCOCC4)cc3)cc(=O)c2c1 [Example 31, 6-Methoxy-8-(4-methyl-piperazin-1-yl)-4-oxo-4H-chromene-2-carboxylic acid (4-morpholin-4-yl-phenyl)-amide] | 234 to 236 °C | activity in the learned helplessness assay for antidepressant/antianxiety activity [1]: demonstrate activity |
